Experimental findings from patent US20240279215A1 (Cytokinetics, Incorporated, priority 2022, published 2024) are described below.

The assay concerns the target human NAMPT (Homo sapiens (Human), UniProt P43490). The experiment in a line: NMN fluorescence biochemical assay (human recombinant NAMPT enzyme assay). The protocol: Compounds described herein were assayed for their ability to stimulate the synthesis of nicotinamide mononucleotide (NMN) by the enzyme NAMPT. The human recombinant enzyme assay measures the activation of the enzyme activity by compounds using recombinant enzyme and substrates in a buffered cell-free system. The assay conditions closely mimic cellular environments. Dose responses were measured using an assay to detect the formation of nicotinamide mono-nucleotide. All experiments were performed in the 384-well format. Generally, 0.5 μL of DMSO containing varying concentrations of the test compound was mixed with 10 μL of the enzyme reagent solution. Enzyme reactions were initiated with the addition of […] containing the substrates. The final assay conditions were as follows: 6 nM human NAMPT, 2.5 mM ATP, 20 μM PRPP and 150 μM nicotinamide in 50 mM HEPES, pH 7.2, 1 mM DTT, 1 mM CHAPS 50 mM NaCl, 100 mM MgCl2. Following an incubation of 60 min at ambient temperature, 10 μL of 20% acetophenone in DMSO was added, followed by 10 μL of 2 M KOH and 40 μL of formic acid. The plates were read for fluorescence (Excitation/Emission=355 nm/460 nm) using an EnVision plate reader after 40 mins of incubation at ambient temperature.

human NAMPT, sequence (P43490 whole entry): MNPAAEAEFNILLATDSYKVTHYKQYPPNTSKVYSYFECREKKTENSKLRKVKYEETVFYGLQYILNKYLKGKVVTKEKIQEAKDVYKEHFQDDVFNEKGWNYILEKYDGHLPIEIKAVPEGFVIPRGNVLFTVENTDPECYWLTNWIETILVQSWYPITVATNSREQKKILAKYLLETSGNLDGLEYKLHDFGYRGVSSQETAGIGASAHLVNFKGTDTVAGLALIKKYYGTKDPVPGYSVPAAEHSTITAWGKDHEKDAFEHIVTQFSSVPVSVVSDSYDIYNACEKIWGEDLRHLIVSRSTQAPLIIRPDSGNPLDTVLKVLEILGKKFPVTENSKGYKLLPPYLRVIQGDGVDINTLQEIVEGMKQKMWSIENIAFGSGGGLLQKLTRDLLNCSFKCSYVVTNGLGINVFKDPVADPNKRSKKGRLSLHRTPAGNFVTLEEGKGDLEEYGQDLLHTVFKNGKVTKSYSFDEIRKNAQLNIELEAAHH

Usually EC50 stands for the midpoint of the concentration-response curve. Turning to `O=C(Nc1ccc(Cc2ccncc2)cc1)OCc1cnoc1` [Compound 333, isoxazol-4-ylmethyl (4-(pyridin-4-ylmethyl)phenyl)carbamate], the “AC1.4 Human” value is 9.58 µM and the EC50 amounted to 38.6 µM.

As for `C[C@H](NC(=O)c1ocnc1C1CC1)c1ccc(NC(=O)OCc2ccc(Cl)cc2)cc1` [Compound 290, (4-chlorophenyl)methyl N-{4-[(1S)-1-[(4-cyclopropyl-1,3-oxazol-5-yl)formamido]ethyl]phenyl}carbamate], the “AC1.4 Human” value worked out at 3.95 µM and the 50% effective concentration (EC50) was 16.9 µM.

For the compound `CS(=O)(=O)N1CC2CC(C1)C2Cc1ccc(NC(=O)OCc2cnco2)cc1` (centres unmarked) [Compound 434, oxazol-5-ylmethyl (4-((3-(methylsulfonyl)-3-azabicyclo[3.1.1]heptan-6-yl)methyl)phenyl)carbamate], the “AC1.4 Human” value is 0.06 µM and the EC50 was 2.11 µM.

As to `O=C(Nc1ccc(CC(=O)N2CCCCC2)cc1)OCc1ccc(Cl)cc1` [Compound 111, (4-chlorophenyl)methyl N-{4-[2-oxo-2-(piperidin-1-yl)ethyl]phenyl}carbamate], the “AC1.4 Human” value is 0.91 µM and the concentration for a half-maximal effect (EC50) came to 5.33 µM.

Take `CC(C)Cn1nccc1C(=O)NCc1ccc(NC(=O)OCc2ccc(Cl)cc2)cc1` [Compound 302, (4-chlorophenyl)methyl N-[4-({[2-(2-methylpropyl)pyrazol-3-yl]formamido}methyl)phenyl]carbamate]: the “AC1.4 Human” value was found to be 4.86 µM and the EC50 is 17.2 µM.

Turning to `O=C(Nc1ccc(CN2C(=O)CC3CC32)cc1)OCc1ccc(Cl)cc1` (centres unmarked) [Compound 63, (4-chlorophenyl)methyl N-[4-({3-oxo-2-azabicyclo[3.1.0]hexan-2-yl}methyl)phenyl]carbamate], the “AC1.4 Human” value came to 0.57 µM and the EC50 came to 4.93 µM.

Regarding `COc1ccc(COC(=O)Nc2ccc(COC3CCN(C(C)=O)CC3)cc2)cc1` [Compound 217, 4-methoxybenzyl (4-(((1-acetylpiperidin-4-yl)oxy)methyl)phenyl)carbamate], the “AC1.4 Human” value worked out at 1.98 µM and the EC50 was 24.4 µM.

Turning to `O=C(Nc1ccc(CC(=O)N2CC[C@@H](O)C2)cc1)OCc1ccc(Cl)cc1` [Compound 317, (4-chlorophenyl)methyl N-(4-{2-[(3R)-3-hydroxypyrrolidin-1-yl]-2-oxoethyl}phenyl)carbamate], the “AC1.4 Human” value is 6.19 µM and the EC50 is 32.4 µM.

On to `O=C(Nc1ccc(COC2CN(C3COC3)C2)cc1)OCc1ccc(Cl)cc1` [Compound 354, 4-chlorobenzyl (4-(((1-(oxetan-3-yl)azetidin-3-yl)oxy)methyl)phenyl)carbamate], for which the “AC1.4 Human” value was determined as 23.64 µM and the EC50 worked out at 38.8 µM.

On to `O=C(Nc1ccc(CNC(=O)c2ccccn2)cc1)OCc1ccc(Cl)cc1` [Compound 272, (4-chlorophenyl)methyl N-{4-[(pyridin-2-ylformamido)methyl]phenyl}carbamate], for which the “AC1.4 Human” value amounted to 3.18 µM and the EC50 came to 10.9 µM.

With `O=C(Nc1ccc(CC2CCN(C(=O)N3CCOCC3)CC2)cc1)OCc1cnco1` [Compound 458, oxazol-5-ylmethyl (4-((1-(morpholine-4-carbonyl)piperidin-4-yl)methyl)phenyl)carbamate], the “AC1.4 Human” value came to 0.13 µM and the concentration for a half-maximal effect (EC50) amounted to 15.2 µM.

As to `O=C(Cc1ncco1)NCc1ccc(NC(=O)OCc2ccc(Cl)cc2)cc1` [Compound 297, (4-chlorophenyl)methyl N-(4-{[2-(1,3-oxazol-2-yl)acetamido]methyl}phenyl)carbamate], the “AC1.4 Human” value was determined as 4.65 µM and the concentration for a half-maximal effect (EC50) was found to be 19.8 µM.

In the case of `Cc1cnoc1C(=O)NCc1ccc(NC(=O)OCc2ccc(Cl)cc2)cc1` [Compound 268, (4-chlorophenyl)methyl N-(4-{[(4-methyl-1,2-oxazol-5-yl)formamido]methyl}phenyl)carbamate], the “AC1.4 Human” value came to 3.05 µM and the EC50 is 13.8 µM.
